Data: patent publication US20260242759A1, “GQ/11 Protein Peptidomimetics” (Vrije Universiteit Brussel, priority 2022, published 2026)
Positions of bridges follow the written chain, without caps; N, C: chain ends. Non-standard residues stand in square brackets, D forms with d. Residues, ends and D or L forms follow the SMILES beside them. Triazole bridges read from a SMILES are 1,4-linked. Lys(N3) = [N-]=[N+]=NCCCC[C@H](N)C(=O)O; Cha = N[C@@H](CC1CCCCC1)C(=O)O; Pra = C#CC[C@H](N)C(=O)O

Experiments:
[1] = target: T1, human muscarinic 1 receptor (M1R) (Homo sapiens, UniProt P11229); test: Radioligand binding assay (RLA) on M1R membrane extracts; conditions: for Shift: IC50 of agonist without mimetic divided by IC50 with mimetic, averaged value; for increase of agonist affinity / stabilization of the receptor: acetylcholine chloride, mimetic at 100 μM
T1 construct: The M1R constructs used in this assay consisted of the full-length human muscarinic 1 receptor; FLAG (N); expressed in transfected cells; membrane extracts
T1 sequence (P11229 1-460): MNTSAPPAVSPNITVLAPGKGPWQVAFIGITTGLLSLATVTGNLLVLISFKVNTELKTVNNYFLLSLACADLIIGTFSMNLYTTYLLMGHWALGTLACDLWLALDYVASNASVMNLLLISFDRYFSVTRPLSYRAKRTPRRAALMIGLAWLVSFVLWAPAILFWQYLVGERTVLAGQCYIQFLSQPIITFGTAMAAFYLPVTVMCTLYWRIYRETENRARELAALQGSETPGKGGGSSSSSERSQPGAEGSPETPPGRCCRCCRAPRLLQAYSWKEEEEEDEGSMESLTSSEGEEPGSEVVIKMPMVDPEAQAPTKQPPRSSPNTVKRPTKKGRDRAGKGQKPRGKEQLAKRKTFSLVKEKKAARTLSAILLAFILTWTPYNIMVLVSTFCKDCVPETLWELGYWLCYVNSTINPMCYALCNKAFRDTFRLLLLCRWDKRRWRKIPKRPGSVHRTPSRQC
From the text: A radioligand displacement assay can quantify the pharmacological stabilization of the GPCR in the active conformation by comparing the affinities of an agonist for the basal versus the active GPCR conformer. In particular, stabilization of a GPCR in an active conformational state or specific binding to a GPCR in an active conformational state by a G protein peptidomimetic or a Gq/11 protein peptidomimetic as disclosed herein can be determined based on the shift in IC50 value of a ligand, in particular an agonist more particularly an orthosteric agonist, which binds to the GPCR when tested in the presence and the absence of the G protein peptidomimetic or the Gq/11 protein peptidomimetic. During the assay, the binding affinity of an orthosteric agonist for the receptor in presence and absence of the (allosteric) peptidomimetic is determined. Therefore, the GPCR, e.g. embedded in membrane extracts, is incubated with a radioligand and different concentrations of the agonist. By increasing the agonist concentration, radioligand will be displaced by the agonist. A leftward shift of the curve in the presence of the peptidomimetic is indicative of a peptidomimetic capable of stabilizing a GPCR in an active conformational state. A “shift” in IC50 value or IC50 shift is defined herein as the IC50 ratio of a ligand, in particular an agonist, more particularly an orthosteric agonist, which binds to the GPCR in the absence of a G protein peptidomimetic or a Gq/11 protein peptidomimetic relative to the presence of the G protein peptidomimetic or the Gq/11 protein peptidomimetic, or the IC50 value of a ligand, in particular an agonist, for binding to the GPCR in the absence of a G protein peptidomimetic or a Gq/11 protein peptidomimetic divided by the IC50 value of the ligand in the presence of the G protein peptidomimetic or the Gq/11 protein peptidomimetic in the same preparation, wherein said IC50 values are determined in a radioligand binding assay or radioligand displacement assay (RLA) as known to the skilled person. For example, a human muscarinic acetylcholine 1 receptor (M1R) radioligand binding assay using ^3H—N-methyl scopolamine (^3H-NMS) as the radioligand and increasing concentrations of acetylcholine chloride (agonist) as cold competitor may be used.
The membrane extracts were prepared from cells that overexpressed muscarinic acetylcholine 1 receptor (M1R), by resuspending the cell pellet in a buffer (1 ml buffer/2×1E7 cells) containing 20 mM Hepes (pH 7.4), 100 mM NaCl, Leupeptin and phenylmethylsulfonyl fluoride (PMSF). Afterwards the cells were vortexed and homogenized in ice using a small volume ULTRA-TURRAX® (6×10 sec). The cells were then centrifuged for 15 min at 16000 rcf, in a pre-cooled centrifuge (4° C.) and resuspended in the previous buffer containing 10% sucrose. Finally, the membranes were again homogenized in ice with the small volume ULTRA-TURRAX® (3×10 sec). The protein concentration in the membrane extracts was determined using a Pierce™ bicinchoninic acidv (BCA) Protein Assay Kit and the protein concentration was extrapolated from the Bovine Serum Albumine standard curve.
The M1R constructs used in this assay consisted of the full-length human muscarinic 1 receptor with a FLAG tag at the N-terminus. A buffer containing 20 mM Hepes pH 7.4, 100 mM NaCl, and 0.1% BSA was used for the ligands, membrane extracts and peptides (+1% dimethylsulfoxide (DMSO)). The competition assay was performed with [3H]—N-methyl scopolamine ([3H]-NMS) as radiolabeled antagonist, at a final concentration of 0.6 nM. A ten-fold dilution series of the agonist, acetylcholine chloride, was prepared to obtain a dose response curve. After incubation, the samples were harvested into filter plates (GF/C) and washed with ice cold washing buffer (20 mM Hepes pH 7.4) using the 96-well harvester. […]

[2] = target: T2, human ghrelin receptor (GHSR) (Homo sapiens, UniProt Q92847, C146S/C304S); test: Bimane fluorescence assay on purified ghrelin receptor in nanodiscs; assay type: biochemical; conditions: bimane labeled GHSR; for conformational change in the receptor: in presence of JMV1843; for maximum emission wavelength of bimane: in presence of full agonist JMV1843 (20 μM)
T2 construct: integrin α5 fragment (N); polyhistidine tag (C); made in house; host or cells: E. coli BL21(DE3)
From the text: Another assay that can be used to analyse conformational changes associated with GPCR activation and/or to identify G protein peptidomimetics that are capable of stabilizing a GPCR in an active conformational state is the bimane fluorescence assay or bimane assay. This assay works through labelling of a cysteine residue in the lower part of the TM6 of a GPCR with a bimane-fluorophore (monobromobimane (MB)). Binding of an agonist to the GPCR causes a conformational change and outward movement of TM6 that places bimane in a more solved-exposed position, which will alter its maximum emission wavelength. In particular, increasing concentrations of agonist result in a concentration-dependent red-shift of the maximum emission wavelength (λmax) of the bimane-fluorophore probe. In the presence of a G protein or an active state stabilizing G protein peptidomimetic λmax may increase further. For example, a bimane labelled ghrelin receptor (such as a cysmin mutant (i.e. mutant with minimal cysteines) of human ghrelin receptor (also referred to herein as growth hormone secretagogue receptor (GHSR) (e.g. the mutant as described in Damian et al. (2021) wherein monobromobimane (MB) fluorescent probe is attached to Cys^255) and ghrelin receptor agonist JMV1843 may be used.
The bimane fluorescence assays on the ghrelin receptor were performed as described in Damian et al. (2021. Nat. Commun. 12:1-15). Briefly, E. coli bacteria (BL21(DE3)) were transformed with a vector encoding the human ghrelin receptor with an integrin α5 fragment at the N-terminus and a polyhistidine tag at the C-terminus. The receptors were then purified and reconstituted into lipidated nanodiscs. The monobromobimane labeling was performed by incubating the receptors, with a unique reactive cysteine at position 255, during 16 h in the dark at 4° C. and in the presence of 0.1 mM tris(2-carboxyethyl)phosphine (TCEO). The reaction was terminated with 5 mM L-cysteine and unreacted monobromobimane was removed using a Zeba™ Spin desalting column.
For the fluorescence assay, the labeled receptor was incubated during 2 h at 20° C. (0.2 μM final concentration), in the absence or presence of the full agonist JMV1843 (20 μM) and in the absence or presence of either the peptidomimetics at varying molar ratios or the purified Gαqβ1γ2 heterotrimer, at a 1:5 receptor-to-G protein molar ratio. Afterwards, the fluorescence experiments were performed on a Horiba Fluoromax-4 TCSP spectrofluorimeter. For each scan, the excitation wavelength (λexc) was set at 380 nm and emission was collected between 440 nm and 520 nm.
The bimane assay is used on GPCRs to detect conformational changes associated with receptor activation. This assay functions through the labelling of a cysteine, which is one of the least frequently occurring amino acids in proteins. Additionally, the majority of the extracellular cysteines form disulfide bonds, which, together with the transmembrane cysteines, are inert to thiol-reactive reagents. Additionally, some of the intracellular cysteines in the C-terminal tail may carry post-translational modifications which reduces the number of reactive cysteines in the receptor (Tian et al. 2017. Chem. Rev. 117:186-245). For GHSR, the remaining reactive cysteine residues C146 (ICL2) and C304 (extracellular end of TM7) were replaced by serines (cysmin mutant, i.e. mutant with minimal cysteines), to allow the monobromobimane (MB) fluorescent probe to be specifically attached to Cys255 in the lower part of TM6 (FIG. 5a) (Damian et al. 2021). In this assay, bimane is chosen because of its small size and sensitivity to the polarity of its environment (Yao et al. 2006. Nat Chem. Biol. 2:417-422). Binding of a ligand to the receptor, causes a conformational change and outward movement of TM6 that places bimane in a more solvent-exposed position, which alters its maximum emission wavelength. […]

T2 sequence (Q92847 whole entry C146S/C304S, the tested form may be a part): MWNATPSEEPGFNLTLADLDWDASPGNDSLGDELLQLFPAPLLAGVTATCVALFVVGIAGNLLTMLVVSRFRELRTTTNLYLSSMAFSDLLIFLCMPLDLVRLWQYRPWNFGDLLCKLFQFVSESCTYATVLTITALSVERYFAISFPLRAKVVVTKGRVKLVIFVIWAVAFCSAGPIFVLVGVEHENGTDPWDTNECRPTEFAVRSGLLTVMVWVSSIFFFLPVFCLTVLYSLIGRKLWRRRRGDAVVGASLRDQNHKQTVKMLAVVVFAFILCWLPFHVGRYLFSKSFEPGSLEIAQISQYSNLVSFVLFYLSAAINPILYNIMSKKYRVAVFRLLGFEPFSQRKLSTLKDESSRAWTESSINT

| Compound | Shift [1] | conformational change in the receptor [2] | increase of agonist affinity / stabilization of the receptor [1] | maximum emission wavelength of bimane [2] |
| --- | --- | --- | --- | --- |
| CC[C@H](C)[C@H](NC(=O)[C@H](CC(=O)O)NC(=O)[C@H](CCCCN)NC(=O)[C@H](CS)NC(=O)[C@H](CC(=O)O)NC(=O)[C@H](CC(N)=O)NC(=O)[C@H](Cc1ccccc1)NC(=O)[C@H](CCCCN)NC(=O)[C@H](CCCCN)NC(=O)[C@H](CCCCN)NC(C)=O)C(=O)N[C@H](C(=O)N[C@@H](CC(C)C)C(=O)N[C@@H](CCC(N)=O)C(=O)N[C@@H](CCSC)C(=O)N[C@@H](CC(N)=O)C(=O)N[C@@H](CC(C)C)C(=O)N[C@@H](CCCNC(=N)N)C(=O)N[C@@H](CCC(=O)O)C(=O)N[C@@H](Cc1ccc(O)cc1)C(=O)N[C@@H](CC(N)=O)C(=O)N[C@@H](CC1CCCCC1)C(=O)N[C@H](C(=O)O)C(C)C)[C@@H](C)CC [SBL-GQ-10] (Ac-KKKFNDCKDIILQMNLREYN[Cha]V-OH) | 2 | not able to induce a conformational change |  |  |
| CC[C@H](C)[C@H](NC(=O)[C@@H]1CCCCn2cc(nn2)C[C@H](NC(=O)[C@H](C)NC(=O)[C@H](Cc2ccccc2)NC(=O)[C@H](CCCCN)NC(=O)[C@H](CCCCN)NC(=O)[C@H](CCCCN)NC(C)=O)C(=O)N[C@@H](C(C)C)C(=O)N[C@@H](CCCCN)C(=O)N[C@@H](CC(=O)O)C(=O)N1)C(=O)N[C@@H](CC(C)C)C(=O)N[C@@H](CCC(N)=O)C(=O)N[C@@H](CC(C)C)C(=O)N[C@@H](CC(N)=O)C(=O)N[C@@H](CC(C)C)C(=O)N[C@@H](CCCCN)C(=O)N[C@@H](CCC(=O)O)C(=O)N[C@@H](Cc1ccc(O)cc1)C(=O)N[C@@H](CC(N)=O)C(=O)N[C@@H](CC1CCCCC1)C(=O)N[C@H](C(=O)O)C(C)C [SBL-GQ-06] (Ac-KKKFA[Pra]VKD[Lys(N3)]ILQLNLKEYN[Cha]V-OH; triazole 6-10) | 8 |  | slight increase in agonist affinity | ~478 nm |
| Ac-KKKFNDCKDIILQMNLREYNLV-OH [SBL-GQ-08] | 2 | not able to induce a conformational change |  |  |
| CC[C@H](C)[C@H](NC(=O)[C@@H]1CCCCn2cc(nn2)C[C@H](NC(=O)[C@H](CC(N)=O)NC(=O)[C@H](Cc2ccccc2)NC(=O)[C@H](CCCCN)NC(=O)[C@H](CCCCN)NC(=O)[C@H](CCCCN)NC(C)=O)C(=O)N[C@@H](CS)C(=O)N[C@@H](CCCCN)C(=O)N[C@@H](CC(=O)O)C(=O)N1)C(=O)N[C@@H](CC(C)C)C(=O)N[C@@H](CCC(N)=O)C(=O)N[C@@H](CCSC)C(=O)N[C@@H](CC(N)=O)C(=O)N[C@@H](CC(C)C)C(=O)N[C@@H](CCCNC(=N)N)C(=O)N[C@@H](CCC(=O)O)C(=O)N[C@@H](Cc1ccc(O)cc1)C(=O)N[C@@H](CC(N)=O)C(=O)N[C@@H](CC1CCCCC1)C(=O)N[C@H](C(=O)O)C(C)C [SBL-GQ-12] (Ac-KKKFN[Pra]CKD[Lys(N3)]ILQMNLREYN[Cha]V-OH; triazole 6-10) | 34 |  | more significant and promising stabilization of the receptor | ~478 nm |
| Ac-KKKFAAVKDTILQLNLKEYNLV-OH [SBL-GQ-02] | 2 | not able to induce a conformational change |  |  |
| CC[C@H](C)[C@H](NC(=O)[C@@H]1CCCCn2cc(nn2)C[C@H](NC(=O)[C@H](CC(N)=O)NC(=O)[C@H](Cc2ccccc2)NC(=O)[C@H](CCCCN)NC(=O)[C@H](CCCCN)NC(=O)[C@H](CCCCN)NC(C)=O)C(=O)N[C@@H](CS)C(=O)N[C@@H](CCCCN)C(=O)N[C@@H](CC(=O)O)C(=O)N1)C(=O)N[C@@H](CC(C)C)C(=O)N[C@@H](CCC(N)=O)C(=O)N[C@@H](CCSC)C(=O)N[C@@H](CC(N)=O)C(=O)N[C@@H](CC(C)C)C(=O)N[C@@H](CCCNC(=N)N)C(=O)N[C@@H](CCC(=O)O)C(=O)N[C@@H](Cc1ccc(O)cc1)C(=O)N[C@@H](CC(N)=O)C(=O)N[C@@H](CC(C)C)C(=O)N[C@H](C(=O)O)C(C)C [SBL-GQ-11] (Ac-KKKFN[Pra]CKD[Lys(N3)]ILQMNLREYNLV-OH; triazole 6-10) | 7 |  | slight increase in agonist affinity | ~478 nm |
